Data published in patent US10245261B2, “Substituted indol-5-ol derivatives and their therapeutic applications” (NantBioScience, Inc., priority 2013, dated 2019).

How the values were obtained:
Test in all cases: KinaseProfiler kinase assay
Format in all cases: biochemical
GSK3β(h) = GSK3β(h) (Homo sapiens, UniProt P49841)
Procedure, shortened: (§1)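 Compounds were serially diluted from DMSO into 20 mM MOPS buffer with EDTA, Brij-35, glycerol, β-mercaptoethanol and 1 mg/mL BSA. Reactions started with MgATP/[γ-33P]ATP, ran 40 min at room temperature, and phosphorylation was measured by scintillation counting after filtermat capture.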

MLK1(h) = MLK1(h) (Homo sapiens, UniProt P80192)
Procedure, shortened: as §1

Blk(h) = Blk(h) (Homo sapiens, UniProt P51451)
Chain of Blk(h) (P51451 whole entry): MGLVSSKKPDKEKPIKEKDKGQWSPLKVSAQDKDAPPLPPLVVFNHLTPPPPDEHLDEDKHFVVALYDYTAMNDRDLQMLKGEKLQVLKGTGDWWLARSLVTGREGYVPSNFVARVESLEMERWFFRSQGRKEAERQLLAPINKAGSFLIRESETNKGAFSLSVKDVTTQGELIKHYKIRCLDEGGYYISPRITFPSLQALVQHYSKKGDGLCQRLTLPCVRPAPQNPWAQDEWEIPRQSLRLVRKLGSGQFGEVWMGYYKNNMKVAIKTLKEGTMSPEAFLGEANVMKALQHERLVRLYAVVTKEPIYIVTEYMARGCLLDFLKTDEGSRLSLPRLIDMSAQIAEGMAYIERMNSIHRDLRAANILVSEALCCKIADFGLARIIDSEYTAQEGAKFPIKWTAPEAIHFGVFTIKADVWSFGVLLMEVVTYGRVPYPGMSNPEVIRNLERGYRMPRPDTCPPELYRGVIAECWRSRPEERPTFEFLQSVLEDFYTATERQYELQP
Procedure, shortened: as §1

SAPK2b(h) = SAPK2b(h) (Homo sapiens, UniProt Q15759)
Procedure, shortened: as §1

FAK(h) = FAK(h) (Homo sapiens, UniProt Q05397)
Procedure, shortened: as §1

EphB2(h) = EphB2(h) (Homo sapiens, UniProt P29323)
Procedure, shortened: as §1

CDK1/cyclinB(h) = CDK1/cyclinB(h) (Homo sapiens, UniProt P06493)
Procedure, shortened: as §1

PDGFRβ(h) = PDGFRβ(h) (Homo sapiens, UniProt P09619)
Procedure, shortened: as §1

ARK5(h) = ARK5(h) (Homo sapiens, UniProt O60285)
Procedure, shortened: as §1

STK33(h) = STK33(h) (Homo sapiens, UniProt Q9BYT3)
Procedure, shortened: as §1

Bmx(h) = Bmx(h) (Homo sapiens, UniProt P51813)
Procedure, shortened: as §1

MRCKβ(h) = MRCKβ(h) (Homo sapiens, UniProt Q9Y5S2)
Procedure, shortened: as §1

HIPK3(h) = HIPK3(h) (Homo sapiens, UniProt Q9H422)
Procedure, shortened: as §1

p70S6K(h) = p70S6K(h) (Homo sapiens, UniProt P23443)
Chain of p70S6K(h) (P23443 whole entry): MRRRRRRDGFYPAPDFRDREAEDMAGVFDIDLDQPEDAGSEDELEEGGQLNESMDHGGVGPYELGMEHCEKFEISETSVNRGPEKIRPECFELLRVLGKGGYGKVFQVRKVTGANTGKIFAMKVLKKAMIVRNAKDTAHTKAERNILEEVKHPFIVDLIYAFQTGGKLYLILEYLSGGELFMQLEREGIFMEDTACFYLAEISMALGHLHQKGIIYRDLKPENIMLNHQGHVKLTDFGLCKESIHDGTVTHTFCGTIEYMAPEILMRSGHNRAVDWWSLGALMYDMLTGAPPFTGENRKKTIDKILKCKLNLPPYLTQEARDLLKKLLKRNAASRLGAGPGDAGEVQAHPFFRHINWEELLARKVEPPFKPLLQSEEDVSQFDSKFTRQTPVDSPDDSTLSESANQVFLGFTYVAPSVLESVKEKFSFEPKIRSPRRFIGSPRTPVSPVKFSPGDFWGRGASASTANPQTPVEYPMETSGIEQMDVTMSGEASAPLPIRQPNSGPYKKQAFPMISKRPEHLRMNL
Procedure, shortened: as §1

CHK1(h) = CHK1(h) (Homo sapiens, UniProt O14757)
Chain of CHK1(h) (O14757 whole entry): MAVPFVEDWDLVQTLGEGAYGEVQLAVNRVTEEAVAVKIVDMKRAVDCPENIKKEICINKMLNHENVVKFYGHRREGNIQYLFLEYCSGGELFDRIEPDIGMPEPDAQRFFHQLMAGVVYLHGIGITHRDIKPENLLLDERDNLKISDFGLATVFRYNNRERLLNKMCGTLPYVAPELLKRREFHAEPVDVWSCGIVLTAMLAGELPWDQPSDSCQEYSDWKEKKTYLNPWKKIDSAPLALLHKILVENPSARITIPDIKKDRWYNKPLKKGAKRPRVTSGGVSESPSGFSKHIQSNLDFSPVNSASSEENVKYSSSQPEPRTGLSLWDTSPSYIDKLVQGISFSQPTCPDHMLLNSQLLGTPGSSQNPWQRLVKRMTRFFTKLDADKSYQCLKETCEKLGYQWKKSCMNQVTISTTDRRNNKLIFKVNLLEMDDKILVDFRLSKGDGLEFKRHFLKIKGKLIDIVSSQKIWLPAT
Procedure, shortened: as §1

EphA7(h) = EphA7(h) (Homo sapiens, UniProt Q15375)
Procedure, shortened: as §1

GRK7(h) = GRK7(h) (Homo sapiens, UniProt Q8WTQ7)
Procedure, shortened: as §1

SAPK4(h) = SAPK4(h) (Homo sapiens, UniProt O15264)
Procedure, shortened: as §1

SRPK2(h) = SRPK2(h) (Homo sapiens, UniProt P78362)
Procedure, shortened: as §1

cKit(D816V)(h) = cKit(D816V)(h) (Homo sapiens, UniProt P10721, D816V)
Procedure, shortened: as §1

Lyn(h) = Lyn(h) (Homo sapiens, UniProt P07948)
Chain of Lyn(h) (P07948 whole entry): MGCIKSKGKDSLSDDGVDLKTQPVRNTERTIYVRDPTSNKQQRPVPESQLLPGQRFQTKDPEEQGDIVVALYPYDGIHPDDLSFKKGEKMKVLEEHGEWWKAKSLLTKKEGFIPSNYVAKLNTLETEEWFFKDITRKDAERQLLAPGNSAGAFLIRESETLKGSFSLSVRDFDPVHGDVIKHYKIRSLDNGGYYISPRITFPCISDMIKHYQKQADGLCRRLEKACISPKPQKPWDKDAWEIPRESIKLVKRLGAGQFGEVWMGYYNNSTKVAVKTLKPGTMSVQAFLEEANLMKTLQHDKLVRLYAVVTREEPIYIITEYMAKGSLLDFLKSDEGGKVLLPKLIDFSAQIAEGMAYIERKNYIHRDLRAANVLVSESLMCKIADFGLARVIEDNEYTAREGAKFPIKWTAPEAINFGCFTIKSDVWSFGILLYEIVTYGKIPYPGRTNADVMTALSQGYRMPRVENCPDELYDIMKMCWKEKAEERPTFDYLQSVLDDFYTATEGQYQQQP
Procedure, shortened: as §1

PKCβI(h) = PKCβI(h) (Homo sapiens, UniProt P05771)
Procedure, shortened: as §1

[1] = target: PI3 Kinase (p110α(E542K)/p85α)(h) (Homo sapiens, UniProt P42336, E542K)
Procedure, shortened: as §1

EGFR(L858R)(h) = EGFR(L858R)(h) (Homo sapiens, UniProt P00533, L858R)
Procedure, shortened: as §1

cKit(h) = cKit(h) (Homo sapiens, UniProt P10721)
Procedure, shortened: as §1

MRCKα(h) = MRCKα(h) (Homo sapiens, UniProt Q5VT25)
Chain of MRCKα(h) (Q5VT25 whole entry): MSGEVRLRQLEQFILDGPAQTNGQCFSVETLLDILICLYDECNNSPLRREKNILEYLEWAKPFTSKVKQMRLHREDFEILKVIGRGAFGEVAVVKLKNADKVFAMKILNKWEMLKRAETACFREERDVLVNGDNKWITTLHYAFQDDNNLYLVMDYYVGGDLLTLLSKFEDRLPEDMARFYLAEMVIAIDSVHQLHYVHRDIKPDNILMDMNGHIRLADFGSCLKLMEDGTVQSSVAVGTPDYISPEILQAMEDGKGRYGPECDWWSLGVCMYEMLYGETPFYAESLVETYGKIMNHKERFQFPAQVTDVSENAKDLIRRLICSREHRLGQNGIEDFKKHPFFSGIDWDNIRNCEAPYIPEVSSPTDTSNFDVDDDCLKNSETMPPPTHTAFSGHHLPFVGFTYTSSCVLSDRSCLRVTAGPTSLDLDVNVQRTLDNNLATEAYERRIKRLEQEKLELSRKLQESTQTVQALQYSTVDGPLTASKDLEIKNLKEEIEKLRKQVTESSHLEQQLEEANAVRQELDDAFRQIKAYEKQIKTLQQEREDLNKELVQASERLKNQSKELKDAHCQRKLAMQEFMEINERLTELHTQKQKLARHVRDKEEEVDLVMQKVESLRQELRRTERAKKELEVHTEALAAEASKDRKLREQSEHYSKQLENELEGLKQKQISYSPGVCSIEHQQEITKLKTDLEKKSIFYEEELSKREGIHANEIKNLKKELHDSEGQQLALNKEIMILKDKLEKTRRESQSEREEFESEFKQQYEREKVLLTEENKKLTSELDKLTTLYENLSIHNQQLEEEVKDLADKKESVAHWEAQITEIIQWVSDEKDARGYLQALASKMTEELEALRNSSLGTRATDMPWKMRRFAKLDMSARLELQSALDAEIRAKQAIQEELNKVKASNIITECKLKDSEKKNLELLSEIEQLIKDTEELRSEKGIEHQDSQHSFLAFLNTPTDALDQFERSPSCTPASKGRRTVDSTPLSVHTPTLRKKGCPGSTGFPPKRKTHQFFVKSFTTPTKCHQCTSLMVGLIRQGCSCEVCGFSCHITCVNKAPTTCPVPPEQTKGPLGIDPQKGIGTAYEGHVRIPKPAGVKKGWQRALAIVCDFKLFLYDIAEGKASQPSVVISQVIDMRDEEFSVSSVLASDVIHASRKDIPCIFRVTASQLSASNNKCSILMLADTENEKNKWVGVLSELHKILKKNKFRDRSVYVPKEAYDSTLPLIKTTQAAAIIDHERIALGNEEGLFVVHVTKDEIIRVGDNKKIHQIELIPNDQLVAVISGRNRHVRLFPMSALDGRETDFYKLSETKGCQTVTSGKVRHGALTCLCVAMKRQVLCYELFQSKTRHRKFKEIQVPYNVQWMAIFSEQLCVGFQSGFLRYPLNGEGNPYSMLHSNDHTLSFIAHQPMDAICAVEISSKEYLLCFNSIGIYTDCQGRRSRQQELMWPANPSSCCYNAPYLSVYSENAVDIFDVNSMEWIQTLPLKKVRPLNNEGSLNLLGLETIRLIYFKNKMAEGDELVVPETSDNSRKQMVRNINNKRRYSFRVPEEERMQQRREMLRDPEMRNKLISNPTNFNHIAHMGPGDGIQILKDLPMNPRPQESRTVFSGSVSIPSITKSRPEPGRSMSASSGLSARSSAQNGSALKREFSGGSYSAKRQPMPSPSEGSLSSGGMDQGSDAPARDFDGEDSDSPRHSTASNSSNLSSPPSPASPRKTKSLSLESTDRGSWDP
Procedure, shortened: as §1

BTK(R28H)(h) = BTK(R28H)(h) (Homo sapiens, UniProt Q06187, R28H)
Procedure, shortened: as §1

PKBα(h) = PKBα(h) (Homo sapiens, UniProt P31749)
Chain of PKBα(h) (P31749 whole entry): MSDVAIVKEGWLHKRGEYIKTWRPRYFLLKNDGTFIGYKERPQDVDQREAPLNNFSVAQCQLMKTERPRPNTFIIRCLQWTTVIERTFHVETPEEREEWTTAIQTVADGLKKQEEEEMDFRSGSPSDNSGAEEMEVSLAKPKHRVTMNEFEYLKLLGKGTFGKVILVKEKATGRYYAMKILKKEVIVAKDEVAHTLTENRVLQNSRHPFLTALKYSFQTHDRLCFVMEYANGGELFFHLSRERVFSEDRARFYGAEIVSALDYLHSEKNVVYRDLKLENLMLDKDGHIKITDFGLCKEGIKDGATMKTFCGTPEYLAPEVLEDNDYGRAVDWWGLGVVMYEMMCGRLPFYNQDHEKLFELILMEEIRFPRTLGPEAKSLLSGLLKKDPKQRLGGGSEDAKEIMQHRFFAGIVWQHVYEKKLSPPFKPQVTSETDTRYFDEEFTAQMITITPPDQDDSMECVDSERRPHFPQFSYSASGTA
Procedure, shortened: as §1

Blk(m) = Blk(m) (Mus musculus, UniProt P16277)
Procedure, shortened: as §1

[2] = target: PI3 Kinase (p110α/p65α)(h) (Homo sapiens, UniProt P42336)
Procedure, shortened: as §1

CSK(h) = CSK(h) (Homo sapiens, UniProt P41240)
Procedure, shortened: as §1

Hck(h) = Hck(h) (Homo sapiens, UniProt P08631)
Chain of Hck(h) (P08631 whole entry): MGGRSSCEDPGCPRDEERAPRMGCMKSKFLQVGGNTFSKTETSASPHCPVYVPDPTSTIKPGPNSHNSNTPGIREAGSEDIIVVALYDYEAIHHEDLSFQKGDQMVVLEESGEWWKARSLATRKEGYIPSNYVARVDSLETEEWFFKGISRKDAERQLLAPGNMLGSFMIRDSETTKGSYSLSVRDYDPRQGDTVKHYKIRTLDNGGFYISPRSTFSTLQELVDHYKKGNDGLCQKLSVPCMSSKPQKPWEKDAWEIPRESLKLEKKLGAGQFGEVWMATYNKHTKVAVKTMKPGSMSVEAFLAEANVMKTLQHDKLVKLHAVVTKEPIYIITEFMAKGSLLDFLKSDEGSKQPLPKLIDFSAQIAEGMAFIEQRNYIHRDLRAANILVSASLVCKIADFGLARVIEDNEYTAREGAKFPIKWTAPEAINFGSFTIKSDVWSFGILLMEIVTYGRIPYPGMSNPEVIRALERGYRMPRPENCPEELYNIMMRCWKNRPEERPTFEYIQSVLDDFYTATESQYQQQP
Procedure, shortened: as §1

Compound | inhibition at 0.1 µM (GSK3β(h)) [%] | inhibition at 0.1 µM (MLK1(h)) [%] | inhibition at 0.1 µM (Blk(h)) [%] | inhibition at 0.1 µM (SAPK2b(h)) [%] | inhibition at 0.1 µM (FAK(h)) [%] | inhibition at 0.1 µM (EphB2(h)) [%] | inhibition at 0.1 µM (CDK1/cyclinB(h)) [%] | inhibition at 0.1 µM (PDGFRβ(h)) [%] | inhibition at 0.1 µM (ARK5(h)) [%] | inhibition at 0.1 µM (STK33(h)) [%] | inhibition at 0.1 µM (Bmx(h)) [%] | inhibition at 0.1 µM (MRCKβ(h)) [%] | inhibition at 0.1 µM (HIPK3(h)) [%] | inhibition at 0.1 µM (p70S6K(h)) [%] | inhibition at 0.1 µM (CHK1(h)) [%] | inhibition at 0.1 µM (EphA7(h)) [%] | inhibition at 0.1 µM (GRK7(h)) [%] | inhibition at 0.1 µM (SAPK4(h)) [%] | inhibition at 0.1 µM (SRPK2(h)) [%] | inhibition at 0.1 µM (cKit(D816V)(h)) [%] | also measured
Cc1cc2c(F)c(Oc3nc(Nc4cc(C5CC5)[nH]n4)cc(N4CCN(C)CC4)n3)ccc2[nH]1 [Compound 10] | -15 | 84 | 94 | -2 | 22 | 47 | 10 | 28 | 99 | 8 | 98 | -6 | -1 | -10 | 16 | 23 | -4 | -13 | 6 | 33 | inhibition at 0.1 µM (Lyn(h)): 100%; inhibition at 0.1 µM (PKCβI(h)): 2%; inhibition at 0.1 µM [1]: -1%; inhibition at 0.1 µM (EGFR(L858R)(h)): -5%; inhibition at 0.1 µM (cKit(h)): 0%; inhibition at 0.1 µM (MRCKα(h)): 2%; inhibition at 0.1 µM (BTK(R28H)(h)): 10%; inhibition at 0.1 µM (PKBα(h)): -24%; inhibition at 0.1 µM (Blk(m)): 84%; inhibition at 0.1 µM [2]: -6%; inhibition at 0.1 µM (CSK(h)): 12%; inhibition at 0.1 µM (Hck(h)): 68%
Cc1cc2c(F)c(Oc3nc(Nc4cc(C5CC5)[nH]n4)cc(N4CCNCC4)n3)ccc2[nH]1 [Compound 11, N-(5-cyclopropyl-1H-pyrazol-3-yl)-2-((4-fluoro-2-methyl-1H-indol-5-yl)oxy)-6-(piperazin-1-yl)pyrimidin-4-amine] | 19 | 86 | 94 | -6 | 22 | 76 | -1 | 24 | 95 | -4 | 99 | -16 | -3 | 2 | 0 | 34 | 0 | 3 | 0 | 38 | inhibition at 0.1 µM (Lyn(h)): 99%; inhibition at 0.1 µM (PKCβI(h)): 5%; inhibition at 0.1 µM [1]: 0%; inhibition at 0.1 µM (EGFR(L858R)(h)): 23%; inhibition at 0.1 µM (cKit(h)): 24%; inhibition at 0.1 µM (MRCKα(h)): -3%; inhibition at 0.1 µM (BTK(R28H)(h)): -7%; inhibition at 0.1 µM (PKBα(h)): -4%; inhibition at 0.1 µM (Blk(m)): 93%; inhibition at 0.1 µM [2]: -1%; inhibition at 0.1 µM (CSK(h)): 5%; inhibition at 0.1 µM (Hck(h)): 85%
